Data reported in ChEMBL document CHEMBL1141708, “Structure-activity relationship of ortho- and meta-phenol based LFA-1 ICAM inhibitors” (Bioorg Med Chem Lett, 2008).

Assays:
[1] = in vivo; details: rat, po
[2] = in vivo; details: rat

Row | bioavailability [1] [%] | half-life [2] [h] | SMILES
1 | 9 | 3.6 | O=C(/C=C/c1ccc(Sc2ccccc2OC[C@H]2CC[C@@H](C(=O)O)CC2)c(C(F)(F)F)c1C(F)(F)F)N1CCOCC1
2 | 31 | 2.6 | O=C(/C=C/c1ccc(Sc2cccc(O[C@H]3CC[C@@H](C(=O)O)CC3)c2)c(C(F)(F)F)c1C(F)(F)F)N1CCOCC1
